Assay results: patent US6555523B1, “Use of cirsiliol and derivatives to treat infections” (priority 1999, dated 2003)
In brackets after ≈: the same amount, converted by molar mass. Several values for one entry are separate records, joined by “and”; a condition that tells them apart may be missing. Equal entries are not always repeated.

Columns and labels:
T, gondii RH = test: In-vitro anti Toxoplasma gondii activity in HFF, Protocol C; type: cell-based
Description: Protocol C—In-vitro testing of anti Toxoplasma gondii activity of Cirsiliol and Naringin. The compounds were tested in an in vitro cell culture assay utilizing human fibroblasts (HFF line) as the host cell. RH strain Toxoplasma gondii that has been transfected with β-galactosidase as a marker for quantitative detection of parasite number (RH Bgal), was used as the challenge organism. The compounds ere dissolved, and then diluted in cell culture medium at least 100 fold for the assays. Controls containing the maximum concentration of solvent used in the assay were run with each test. The active drugs were added and the monolayers were infected immediately at the beginning of each test. Extracellular T. gondii were removed by rinsing the monolayer, and infected host cells remained in contact with the cells for the entire test period. Each test was terminated when at least four parasite doublings could be visually identified in the control monolayers, and parasite numbers were quantitated by standard colorimetric assay for bet galactosidase activity with optical density at 550 nm as the readout. The optical density in this assay has a direct and linear correlation with parasite numbers over a 5-log parasite concentration. Toxicity in the host cells was determined by inspection for cytopathic effects and visual evaluation of cell growth.

in vitro = details: human
[1] = tested on: Bovine Viral Diarrhea Virus; test: Plaque formation by Bovine Viral Diarrhea Virus in MDBK cultures; type: cell-based, bovine viral diarrhea virus (BVDV); details: for Number of plaques: Tests 1-3, control 68; for % Reduction: plaques
Description: HCV in vitro assays. No well-accepted model exists for HCV and new compounds for use in the treatment of HCV are frequently tested for activity against bovine viral diarrhea virus (BVDV), a virus which is related to HCV.
A representative compound according to the present invention, naringin (i.e., 7-neohesperidoside, 5, 4′ dihydroxyflavanone) was tested for anti-BVDV activity in MDBK cells.

parainfluenza HA-1 = test: CPE-inhibition (microscopic) assay, Protocol A2; type: cell-based, parainfluenza virus; details: HEp-2, cell Hep2 (cell blank for 3-(4′-bromophenyl) coumarin)
[2] = Drug cytotoxicity by XTT in monocyte-macrophages, Protocol D2; type: cell-based; details: human; macrophage; D2; naringin solubilised in 35% EtOH; read-out: TC50
Description: Protocol D2—Assay in fresh human monocyte-macrophages. […] The cells are placed in a 96-well microtiter plate at 37° C. for 2 hours. Non-adherent cells are removed by vigorously washing six times. […] The cultures are carefully monitored for confluency during this incubation period. Infection of the cells is performed with monocytotropic HIV-1 isolates. […] Monocytemacrophage monolayers are infected at a multiplicity of infection (“MOI”) of 0.1.
(§3) At 2 days post-infection, the medium is decanted and the cultures washed twice with complete medium in order to remove excess virus. Fresh medium alone or medium containing the appropriate concentration of drug is added and incubation continued for an additional five days. XTT staining for cytotoxicity and HIV p24 ELISA assays for production of p24 core antigen are performed on Day 7 post infection. This is performed according the ELISA kit assay manufacturers recommendations. Control curves are generated in each assay to accurately quantitate the amount of capsid protein in each sample. Data is obtained by spectrophotometric analysis at 450 nm using a Molecular Devices Vmax plate reader. P24 concentrations are calculated form the optical density values by use of the Molecular Device software package Soft Max.

hepatitis C virus = test: Human HCV clinical trial, one patient (HCV and HIV infected), naringin 4 g orally three times daily: hepatitis C RNA; type: in vivo; details: for Hepatitis C by PCR log 10: Day 0: 6.5; for Hepatitis C RNA ultraquant: Day 0: 2,871,300, ref. <200
Description: (§1) Human HCV clinical trial. A human patient suffering from hepatitis C virus was treated according to the following regimen: initial dosing beginning on Day 0 (see Table C), three times daily, the patient ingested 4 g of naringin orally, and then drank hot tea; in later days, the patient ingested, three times daily, 4 g of naringin mixed in hot tea. This patient also suffered from HIV infection.
(§2) The tables below, labeled part 1 through part 4, show data from this patients' bloodwork on Day 0 (when treatment according to this invention was initiated), Day 3 (3 days after Day 0), Day 6 (6 days after Day 0) and Day 9 (9 days after Day 0). In addition, the tables include data from this patients' bloodwork 72 days before Day 0 (“Day −72”).

HIV Ba-L = test: Anti-HIV assay in fresh human monocyte-macrophages (p24 ELISA), Protocol D2; type: cell-based; details: Human immunodeficiency virus 1, BAL, Macrophage
Description: Protocol D2—Assay in fresh human monocyte-macrophages. […] The cells are placed in a 96-well microtiter plate at 37° C. for 2 hours. Non-adherent cells are removed by vigorously washing six times. […] The cultures are carefully monitored for confluency during this incubation period. Infection of the cells is performed with monocytotropic HIV-1 isolates. High titer pools of each of these viruses are harvested from infected cultures of peripheral blood adherent cells and frozen in 1.0 ml aliquots at −80° C. Monocytemacrophage monolayers are infected at a multiplicity of infection (“MOI”) of 0.1.
as §3
Most of the values were based on average values that were obtained from duplicate or triplicate assay wells.

[3] = Human HCV clinical trial, one patient (HCV and HIV infected), naringin 4 g orally three times daily: bloodwork and urine values; type: in vivo; details: for Basophils: Day 0: 0; for Basophils / Eosinophils: ref. 0-5%; for Creatinine: Day 0: 0.5, ref. 0.5-1.2; for Eosinophils: Day 0: 1; for WBC: Day 0: 3.2, ref. 4-11 × 10^3; for RBC: Day 0: 4.7, ref. 3.9-5.1 × 10^6; for Monocytes: Day 0: 5, ref. 0-10%; for Hemoglobin: Day 0: 14, ref. 13.0-17.0; for Lymphocytes: Day 0: 29, ref. 15-50%; for MCH: Day 0: 30; for MCHC: Day 0: 34, ref. 32-36%; for Hematocrit: Day 0: 41.7, ref. 36-46%; for Glucose: Day 0: 76; for SGOT: Day 0: 83; for Platelet Count: Day 0: 96, ref. 150-400 × 10^3; for SGPT: Day 0: 112; for Specific Gravity: ref. 1.005-1.035; for pH: ref. 4.5-7.5; for Acetone, Urine / Bilirubin / Glucose, Urine / Leukocyte esterase / Nitrite / Occult Blood / Protein, Urine: ref. Negative
Description: as §1, §2

MDBK cells = details: cattle
Description: As a comparison, similar tests were conducted using ribavirin.

`C[C@@H]1O[C@@H](O[C@H]2[C@H](Oc3cc(O)c4c(c3)O[C@H](c3ccc(O)cc3)CC4=O)O[C@H](CO)[C@@H](O)[C@@H]2O)[C@H](O)[C@H](O)[C@H]1O` [Naringin, 7-neohesperidoside, 5, 4′ dihydroxyflavanone] showed an IC50 (T, gondii RH) greater than 100 µM, a CC50 (in vitro) of 100 µM and an ID50 ([1]; BVDV plaque formation in MDBK, table footnote, unit from the table's concentration head) of 631.39 µg/mL (≈ 1090 µM). The Number of plaques ([1]; naringin 31.25 μg/mL) was 65 and 75 and 60, the Number of plaques ([1]; naringin 62.50 μg/mL) was 57 and 65 and the Number of plaques ([1]; naringin 125.00 μg/mL) was 52 and 65 and 61. The Number of plaques ([1]; naringin 250.00 μg/mL) was 50 and 58 and 52, the Number of plaques ([1]; naringin 500.00 μg/mL) was 32 and 45 and 42 and the Number of plaques ([1]; naringin 1000.00 μg/mL) was 22 and 25 and 14. For the same compound, the Number of plaques ([1]; naringin 1500.00 μg/mL) was 8 and 11, the Number of plaques ([1]; naringin 2000.00 μg/mL) was 4 and 3 and the “% Reduction” value ([1]; naringin 31.25 μg/mL) was 2.39%. The “% Reduction” value ([1]; naringin 62.50 μg/mL) was 12.64%, the “% Reduction” value ([1]; naringin 125.00 μg/mL) was 13.12% and the “% Reduction” value ([1]; naringin 250.00 μg/mL) was 21.91%. The “% Reduction” value ([1]; naringin 500.00 μg/mL) was 41.92%, the “% Reduction” value ([1]; naringin 1000.00 μg/mL) was 70.22% and the “% Reduction” value ([1]; naringin 1500.00 μg/mL) was 86.82%. The “% Reduction” value ([1]; naringin 2000.00 μg/mL) was 95.11%, the IC50 (parainfluenza HA-1) was 25 µM and the CC50 at 7 days [2] was greater than 100 µM. For the same compound, the “Hepatitis C by PCR log 10” value (hepatitis C virus; Day 3) was 6.2, the “Hepatitis C RNA ultraquant” value (hepatitis C virus; Day 3) was 1,500,900 copies/mL and the “Hepatitis C by PCR log 10” value (hepatitis C virus; Day 6) was 5.5. The “Hepatitis C RNA ultraquant” value (hepatitis C virus; Day 6) was 340,540 copies/mL, the “Hepatitis C by PCR log 10” value (hepatitis C virus; Day 9) was 4.9 and the “Hepatitis C RNA ultraquant” value (hepatitis C virus; Day 9) was 78,592 copies/mL. For the same compound, the “patient's hepatitis C PCR values” (hepatitis C virus; summary in words, Day 0 to Day 9) was “drastic reduction”, the IC50 (HIV Ba-L; D2, naringin solubilised in 35% EtOH) was 86.2 µM and the IC50 (HIV Ba-L; D2, naringin solubilised in 95% EtOH) was greater than 100 µM. For the same compound, the Appearance ([3]; Day 3) was “Clear”, the Color ([3]; Day 3) was “Yellow” and the Basophils ([3]; Day 3) was 1%. The Creatinine ([3]; Day 3) was 0.5 mg/dL, the Eosinophils ([3]; Day 3) was 0% and the WBC ([3]; Day 3) was 3.3 × 10^3 /mm^3. The RBC ([3]; Day 3) was 4.71 × 10^6 /mm^3, the Monocytes ([3]; Day 3) was 10% and the Hemoglobin ([3]; Day 3) was 13.9 g/dL. It also gave a Lymphocytes ([3]; Day 3) of 25%, an MCH ([3]; Day 3) of 30 picograms and an MCHC ([3]; Day 3) of 34%. The Hematocrit ([3]; Day 3) was 40.5%, the Glucose ([3]; Day 3) was 98 mg/dL and the SGOT ([3]; Day 3) was 62 u/L. For the same compound, the “Platelet Count” value ([3]; Day 3) was 104 × 10^3 /mm^3, the SGPT ([3]; Day 3) was 102 u/L and the “Specific Gravity” value ([3]; Day 3) was 1.024. For the same compound, the pH ([3]; Day 3) was 5, the “Acetone, Urine” value ([3]; Day 3) was “Negative” and the Bilirubin ([3]; Day 3) was “Negative”. For the same compound, the “Glucose, Urine” value ([3]; Day 3) was “Negative”, the Leukocyte esterase ([3]; Day 3) was “Negative” and the Nitrite ([3]; Day 3) was “Negative”. For the same compound, the “Occult Blood” value ([3]; Day 3) was “Negative”, the “Protein, Urine” value ([3]; Day 3) was “Negative” and the Appearance ([3]; Day 6) was “Clear”. The Basophils ([3]; Day 6) was 1%, the Creatinine ([3]; Day 6) was 0.5 mg/dL and the Eosinophils ([3]; Day 6) was 1%. For the same compound, the WBC ([3]; Day 6) was 3.4 × 10^3 /mm^3, the RBC ([3]; Day 6) was 4.6 × 10^6 /mm^3 and the Monocytes ([3]; Day 6) was 6%. It also gave a Hemoglobin ([3]; Day 6) of 13.7 g/dL, a Lymphocytes ([3]; Day 6) of 28% and an MCH ([3]; Day 6) of 30 picograms. It also gave an MCHC ([3]; Day 6) of 34%, a Hematocrit ([3]; Day 6) of 40.1% and a Glucose ([3]; Day 6) of 93 mg/dL. The SGOT ([3]; Day 6) was 38 u/L, the “Platelet Count” value ([3]; Day 6) was 112 × 10^3 /mm^3 and the SGPT ([3]; Day 6) was 62 u/L. The “Specific Gravity” value ([3]; Day 6) was 1.017, the pH ([3]; Day 6) was 6 and the “Acetone, Urine” value ([3]; Day 6) was “Negative”. The Bilirubin ([3]; Day 6) was “Negative”, the “Glucose, Urine” value ([3]; Day 6) was “Negative” and the Leukocyte esterase ([3]; Day 6) was “Negative”. For the same compound, the Nitrite ([3]; Day 6) was “Negative”, the “Occult Blood” value ([3]; Day 6) was “Negative” and the “Protein, Urine” value ([3]; Day 6) was “Negative”. The “patient's SGOT values” ([3]; summary in words) was “drastic reduction”, the “patient's SGPT values” ([3]; summary in words) was “drastic reduction” and the “MTC (minimum cytotoxic drug concentration)” value (MDBK cells) was greater than 2000 µg/mL.
